No end group written: not given here. *: point of attachment. Cam = NC(=O)C*
These substances were tested on cathepsins B, S, and H (assay: Proteolytic mapping (ProtMap) of native and citrullinated autoantigens by cathepsins B, S, and H with LFQ-MS). Conditions: sites found over all samples of the cathepsin B, H digests, MSFragger search.
Assay type: biochemical, human
Method: Prior to proteolytic mapping, citrullinated antigens were generated by incubating recombinant human antigens—hnRNP A2/B1 (RA33; custom-made as previously described by in ref. [24]), fibrinogen (Cayman Chemical), and vimentin (PeproTech)—with Sf9-purified peptidylarginine deiminase 2 or 4 (PAD2 or PAD4; Inova) at a 17:1 mass ratio in citrullination buffer (100 mM Tris, 1 mM DTT, 5 mM CaCl2, pH 7.5) for 4 h at 37 °C. Native antigens were diluted in the same buffer without PAD enzymes and without incubation at 37 °C to prevent degradation. Citrullination was confirmed by anti-peptidylcitrulline (clone F95, EMD Millipore) immunoblotting. […] The resulting peptide repertoires were then analyzed by LFQ–MS.
Prior to MS, the samples were reduced and alkylated by incubating in 10 mM Tris (2-Carboxyethyl) phosphine hydrochloride (TCEP, v/v) and 50 mM chloroacetamide (CAA, v/v) for 1 h at room temperature. […] The peptide samples were analyzed on an Orbitrap Fusion Lumos Tribrid mass spectrometer interfaced with an Ultimate 3000 RS Autosampler nanoflow liquid chromatography system (Thermo Scientific). […] The most intense ions with charge states of 2–5 were isolated in a 3-s cycle, fragmented using higher-energy collisional dissociation (HCD) fragmentation with 32% normalized collision energy, and detected at a mass resolution of 50,000 at an m/z of 200. […]

Question: How did the “Modifications (deamidated arginine = citrullinated sites detected)” value turn out when “Vimentin: recombinant human vimentin (PeproTech), RA autoantigen; native or citrullinated by PAD2 or PAD4” was run?
Answer: Deamidated [R13; R23; R36; R64; R100; R113; R158; R175; R184; R196; R207; R270; R273; R304; R310; R364; R401; R410; R424; R440; R450]

These substances were tested on PAD2 and PAD4 (assay: Citrullination site mapping of fibrinogen and vimentin by trypsin digestion and mass spectrometry (protein-level sheet, one search over native, PAD2-cit and PAD4-cit samples)). Conditions: modified residues found per protein; Deamidated [R..] = deamidated (citrullinated) arginine positions; trypsin digest, Sequest HT; not split by sample (native, PAD2-citrullinated, PAD4-citrullinated fibrinogen and vimentin).
Assay type: biochemical, human
Description: (§1) Description: Raw mass spectrometry data for proteolytic mapping of fibrinogen, vimentin, and hnRNP A2/B1 by cathepsins B, S, and H (sheets 1-6); citrullination site mapping of fibrinogen and vimentin by trypsin digestion (sheets 7-8); and the natural antigen processing assay with native, PAD2-citrullinated (PAD2-cit), and PAD4-citrullinated (PAD4-cit) fibrinogen (sheets 9-11).

Question: For A0A4W9A917 [Peptide A0A4W9A917], which Modifications is on record?
Answer: Deamidated [R365]

Question: How did the Modifications turn out when P01024 [Peptide P01024] was run?
Answer: Deamidated [R315; R386; R462; R710; R712; R1134; R1507; R1512; R1532; R1582]

Question: For P01834 [Peptide P01834], which Modifications is on record?
Answer: Deamidated [R1]

Question: How did the Modifications turn out when P01876 [Peptide P01876] was run?
Answer: Deamidated [R253; R263; R273]

Question: Which Modifications does the source give for P02751 [Peptide P02751] here?
Answer: Deamidated [R83; R107; R114; R130; R155; R156; R241; R252; R265; R272; R290; R479; R694; R784; R1157; R1197; R1473; R1525; R1543; R1664; R1844; R1909; R1950; R1982; R2165; R2335; R2340; R2357; R2417; R2426; R2447; R2451]

Question: How did the Modifications turn out when P02768 [Peptide P02768] was run?
Answer: Deamidated [R105; R122; R138; R141; R169; R281; R434; R452; R469; R509]

Question: “P04259 (ATGGGLSSVGGGSSTIK) [Peptide P04259]” was tested. Which Modifications did it give?
Answer: Deamidated [R182; R222; R326; R369]

Question: For “P04264 (GGGFGGGGIGGGGFGG) [Peptide P04264]”, which Modifications is on record?
Answer: Deamidated [R29; R65; R239; R267; R277; R386; R432; R483; R518; R549]

Question: With P04275 (IDVPWNVVPEK) [Peptide P04275] as the substance, how does the Modifications read?
Answer: Deamidated [R236; R768; R782; R816; R906; R945; R1204; R1205; R1597; R1641; R1853; R1888; R1916; R1921; R1924; R1943; R1956; R1998; R2099; R2185; R2464; R2535; R2663; R2681; R2730]

Question: How did the Modifications turn out when P05160 (LIENGYFHPVK) [Peptide P05160] was run?
Answer: Deamidated [R69; R147; R271; R273; R380; R424; R432; R463; R507; R603]

Question: With P08779 [Peptide P08779] as the substance, how does the Modifications read?
Answer: Deamidated [R127; R284; R441]; Met-loss+Acetyl [N-Term]

Question: How did the Modifications turn out when P13645 (LQIDNARLAADDF) [Peptide P13645] was run?
Answer: Deamidated [R15; R35; R156; R228; R245; R256; R322; R333; R399; R441; R450]

Question: Which Modifications does the source give for “P17661 (VELQELNDRFANYIEKVR; also: deamidated, site not given here) [Peptide P17661]” here?
Answer: Deamidated [R118; R386]

Question: P23142 (VRPIVGPFH) [Peptide P23142] was tested. Which Modifications did it give?
Answer: Deamidated [R90; R179; R181; R287; R289; R343; R353; R467; R561; R562; R582; R642]

Question: Which Modifications does the source give for “P35527 (GGGGGGGLGSGGSIRSSY) [Peptide P35527]” here?
Answer: Deamidated [R95; R163; R233; R250; R261; R327; R374; R427]

Question: With “P35908 (GPGGFGPGGYPGGIHE) [Peptide P35908]” as the substance, how does the Modifications read?
Answer: Deamidated [R45; R122; R221; R238; R247; R341; R384; R524; R544]

Question: P41219 (EYQELLNVK) [Peptide P41219] was tested. Which Modifications did it give?
Answer: Deamidated [R397]

Question: “P48668 (QC(Cam)ASLQAAIADAEQR) [Peptide P48668]” was tested. Which Modifications did it give?
Answer: Deamidated [R182; R222; R326]

Question: How did the Modifications turn out when “P49771 (LLQETSEQLVALKPWITR; also: deamidated, site not given here) [Peptide P49771]” was run?
Answer: Deamidated [R81; R85; R100; R147]

Question: For “Q14525 (EVEQWFATQTEELNK) [Peptide Q14525]”, which Modifications is on record?
Answer: Deamidated [R293]

Question: How did the Modifications turn out when “Q15323 (LNVEVDAAPTVDLNR) [Peptide Q15323]” was run?
Answer: Deamidated [R293]

Question: For “Vimentin: recombinant human vimentin (PeproTech), RA autoantigen; native or citrullinated by PAD2 or PAD4”, which Modifications is on record?
Answer: Deamidated [R13; R23; R28; R36; R45; R50; R64; R69; R71; R78; R100; R113; R122; R145; R155; R158; R159; R170; R175; R184; R186; R196; R207; R217; R222; R270; R273; R304; R310; R320; R321; R342; R345; R364; R378; R381; R401; R410; R424; R440; R450]

What follows are substances tested on recombinant human PAD2 and PAD4 (assay: Citrullination site mapping by trypsin digestion and mass spectrometry; protein-level modifications over native, PAD2- and PAD4-citrullinated samples combined). Conditions: trypsin digest, Sequest HT search; co-identified proteins in the fibrinogen and vimentin samples (native, PAD2-cit, PAD4-cit); not split by sample or enzyme.
Assay type: biochemical
Description: as §1

Question: For Clusterin, which “Modifications (Deamidated [R...] = citrullinated arginine positions found)” value is on record?
Answer: Deamidated [R306; R425]

Question: Which “Modifications (Deamidated [R...] = citrullinated arginine positions found)” value does the source give for Filaggrin-2 here?
Answer: Deamidated [R63]

Question: “Glyceraldehyde-3-phosphate dehydrogenase” was tested. Which “Modifications (Deamidated [R...] = citrullinated arginine positions found)” value did it give?
Answer: Deamidated [R80]

Question: Heat shock cognate 71 kDa protein was tested. Which “Modifications (Deamidated [R...] = citrullinated arginine positions found)” value did it give?
Answer: Deamidated [R323]

Question: For Hornerin, which “Modifications (Deamidated [R...] = citrullinated arginine positions found)” value is on record?
Answer: Deamidated [R1507; R2447; R3930]

Question: How did the “Modifications (Deamidated [R...] = citrullinated arginine positions found)” value turn out when Interleukin-8 was run?
Answer: Deamidated [R74]

Question: Pre-mRNA-processing-splicing factor 8 was tested. Which “Modifications (Deamidated [R...] = citrullinated arginine positions found)” value did it give?
Answer: Deamidated [R362]

Question: Serotransferrin was tested. Which “Modifications (Deamidated [R...] = citrullinated arginine positions found)” value did it give?
Answer: Deamidated [R239]

Question: Which “Modifications (Deamidated [R...] = citrullinated arginine positions found)” value does the source give for Tubulin beta chain here?
Answer: Deamidated [R2; R121; R156; R162]

Question: For Tubulin beta-2A chain, which “Modifications (Deamidated [R...] = citrullinated arginine positions found)” value is on record?
Answer: Deamidated [R2; R121]

Each substance was assayed on PAD2 / PAD4 (assay: Citrullination site mapping of fibrinogen and vimentin by trypsin digestion, protein-level sheet (native, PAD2- and PAD4-citrullinated samples searched together)). Conditions: deamidated Arg (= citrullinated) positions found by Sequest HT after trypsin digestion; one list for all six samples (native, PAD2-, PAD4-citrullinated fibrinogen and vimentin); co-purified/contaminant proteins.
Assay type: biochemical, Homo sapiens
Description: as §1

Question: Which Modifications does the source give for “MYLNVIINNTWQGDFSQIKVFLMTLKNMISKLKTECGCQFTSKLEGMFRDMSISNTTMDEFRQHLQATGVSLGGVDLTVRVLTTGYWPTQSATPKCNIPPAPRHAFEIFRRFYLAKHSGRQLTLQHHMGSADLNATFYGPVKKEDGSEVGVGGAQVTGSNTRKHILQVSTFQMTILMLFNNREKYTFEEIQQETDIPERELVRALQSLACGKPTQRVLTKEPKSKEIENGHIFTVNDQFTSKLHRVKIQTVAAKQGESDPERKETRQKVDDDRKHEIEAAIVRIMKSRKKMQHNVLVAEVTQQLKARFLPSPVVIKKRIEGLIEREYLARTPEDRKVYTYVA [Peptide A0A087WTG3]” here?
Answer: Deamidated [R283]

Question: “P22090 (LREC(Cam)LPLIVFLR) [Peptide P22090]” was tested. Which Modifications did it give?
Answer: Deamidated [R39]

Question: For “P62269 (IPDWFLNRQK; also: deamidated, site not given here) [Peptide P62269]”, which Modifications is on record?
Answer: Deamidated [R86]
